Laboratory results reported in US20260027116A1, “Methods of Treating Chronic Graft-Versus-Host Disease Following Allogeneic Hematopoietic Stem Cell Transplantation” (Kadmon Corporation, LLC, priority 2022, published 2026).

What was measured:
lung function = test: Example 1: percent predicted FEV1 change from baseline; assay type: in vivo, human
Procedure: Change From Baseline in Percent Predicted Forced Expiratory Volume in 1 Second (FEV1) at Each Specified Time Points. FEV1 was the volume of air exhaled from the lungs in the first second of a forced expiration as measured by spirometer. Baseline value was defined as valid and last non-missing value obtained within 28 days prior to participant receiving first study medication. EOT visit was performed within 3 days after the participant's last dose of study drug. […] Analysis was performed on mITT population. Here, ‘number analyzed’=participants with available data for each specified category. Here, ‘O’ in the number analyzed field signifies that none of the participants were available for the analysis at the specified time points.

cGVHD = test: Example 2: corticosteroid and other immunosuppressant reduction; assay type: in vivo, human
Procedure: All responses were assessed by the study site investigators.

CYP2D6 = CYP2D6 (Homo sapiens, UniProt P10635); test: enzyme inhibition in vitro; assay type: in vitro ADME
Chain of CYP2D6 (P10635 whole entry): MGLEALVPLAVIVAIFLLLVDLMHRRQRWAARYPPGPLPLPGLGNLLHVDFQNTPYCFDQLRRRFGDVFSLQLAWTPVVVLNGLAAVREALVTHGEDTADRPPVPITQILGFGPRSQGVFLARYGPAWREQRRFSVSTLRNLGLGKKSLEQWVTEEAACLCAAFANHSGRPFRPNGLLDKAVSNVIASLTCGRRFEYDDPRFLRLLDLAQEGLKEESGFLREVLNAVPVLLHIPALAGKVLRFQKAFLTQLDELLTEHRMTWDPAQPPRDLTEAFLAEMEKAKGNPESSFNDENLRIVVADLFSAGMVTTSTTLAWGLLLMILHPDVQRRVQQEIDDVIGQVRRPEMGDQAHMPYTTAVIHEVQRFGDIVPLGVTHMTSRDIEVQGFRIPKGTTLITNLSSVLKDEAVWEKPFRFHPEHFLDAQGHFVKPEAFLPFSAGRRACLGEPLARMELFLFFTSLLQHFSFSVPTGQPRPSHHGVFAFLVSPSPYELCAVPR

For CC(C)NC(=O)COc1cccc(-c2nc(Nc3ccc4[nH]ncc4c3)c3ccccc3n2)c1 [Belumosudil, 2-{3-[4-(1H-indazol-5-ylamino)-2-quinazolinyl]phenoxy}-N-(propan-2-yl) acetamide], the “Change From Baseline in Percent Predicted Forced Expiratory Volume in 1 Second (FEV1), Mean (Standard Deviation)” value (lung function; Cohort 2: 200 mg BID, Cycle 27, Day 1) was −17.0 (9.9) percent predicted FEV1, the “Change From Baseline in Percent Predicted Forced Expiratory Volume in 1 Second (FEV1), Mean (Standard Deviation)” value (lung function; Cohort 2: 200 mg BID, Cycle 29, Day 1) was 17.0 (11.3) percent predicted FEV1 and the “Change From Baseline in Percent Predicted Forced Expiratory Volume in 1 Second (FEV1), Mean (Standard Deviation)” value (lung function; Cohort 2: 200 mg BID, Cycle 31, Day 1) was −19.5 (10.6) percent predicted FEV1. The “Change From Baseline in Percent Predicted Forced Expiratory Volume in 1 Second (FEV1), Mean (Standard Deviation)” value (lung function; Cohort 2: 200 mg BID, Cycle 33, Day 1) was −1.0 (33.9) percent predicted FEV1, the “Change From Baseline in Percent Predicted Forced Expiratory Volume in 1 Second (FEV1), Mean (Standard Deviation)” value (lung function; Cohort 2: 200 mg BID, Cycle 35, Day 1) was −2.5 (30.4) percent predicted FEV1 and the “Change From Baseline in Percent Predicted Forced Expiratory Volume in 1 Second (FEV1), Mean (Standard Deviation)” value (lung function; Cohort 2: 200 mg BID, Cycle 37, Day 1) was −22.0 (—) percent predicted FEV1. For the same compound, the “Change From Baseline in Percent Predicted Forced Expiratory Volume in 1 Second (FEV1), Mean (Standard Deviation)” value (lung function; Cohort 2: 200 mg BID, Cycle 39, Day 1) was −23.0 (11.3) percent predicted FEV1, the “Change From Baseline in Percent Predicted Forced Expiratory Volume in 1 Second (FEV1), Mean (Standard Deviation)” value (lung function; Cohort 2: 200 mg BID, Cycle 43, Day 1) was −21.0 (—) percent predicted FEV1 and the “Change From Baseline in Percent Predicted Forced Expiratory Volume in 1 Second (FEV1), Mean (Standard Deviation)” value (lung function; Cohort 2: 200 mg BID, EOT) was −10.1 (15.7) percent predicted FEV1. The “Change From Baseline in Percent Predicted Forced Expiratory Volume in 1 Second (FEV1), Mean (Standard Deviation)” value (lung function; Cohort 3: 400 mg QD, Cycle 2, Day 1) was −4.8 (6.7) percent predicted FEV1, the “Change From Baseline in Percent Predicted Forced Expiratory Volume in 1 Second (FEV1), Mean (Standard Deviation)” value (lung function; Cohort 3: 400 mg QD, Cycle 3, Day 1) was −1.5 (6.2) percent predicted FEV1 and the “Change From Baseline in Percent Predicted Forced Expiratory Volume in 1 Second (FEV1), Mean (Standard Deviation)” value (lung function; Cohort 3: 400 mg QD, Cycle 4, Day 1) was −0.2 (8.4) percent predicted FEV1. The “Change From Baseline in Percent Predicted Forced Expiratory Volume in 1 Second (FEV1), Mean (Standard Deviation)” value (lung function; Cohort 3: 400 mg QD, Cycle 5, Day 1) was 0.5 (5.9) percent predicted FEV1, the “Change From Baseline in Percent Predicted Forced Expiratory Volume in 1 Second (FEV1), Mean (Standard Deviation)” value (lung function; Cohort 3: 400 mg QD, Cycle 6, Day 1) was −0.9 (6.4) percent predicted FEV1 and the “Change From Baseline in Percent Predicted Forced Expiratory Volume in 1 Second (FEV1), Mean (Standard Deviation)” value (lung function; Cohort 3: 400 mg QD, Cycle 7, Day 1) was −0.9 (11.8) percent predicted FEV1. For the same compound, the “Change From Baseline in Percent Predicted Forced Expiratory Volume in 1 Second (FEV1), Mean (Standard Deviation)” value (lung function; Cohort 3: 400 mg QD, Cycle 8, Day 1) was −1.1 (8.0) percent predicted FEV1, the “Change From Baseline in Percent Predicted Forced Expiratory Volume in 1 Second (FEV1), Mean (Standard Deviation)” value (lung function; Cohort 3: 400 mg QD, Cycle 9, Day 1) was −3.0 (11.8) percent predicted FEV1 and the “Change From Baseline in Percent Predicted Forced Expiratory Volume in 1 Second (FEV1), Mean (Standard Deviation)” value (lung function; Cohort 3: 400 mg QD, Cycle 10, Day 1) was 2.7 (3.9) percent predicted FEV1. For the same compound, the “Change From Baseline in Percent Predicted Forced Expiratory Volume in 1 Second (FEV1), Mean (Standard Deviation)” value (lung function; Cohort 3: 400 mg QD, Cycle 11, Day 1) was −4.4 (15.8) percent predicted FEV1, the “Change From Baseline in Percent Predicted Forced Expiratory Volume in 1 Second (FEV1), Mean (Standard Deviation)” value (lung function; Cohort 3: 400 mg QD, Cycle 12, Day 1) was 0.3 (3.6) percent predicted FEV1 and the “Change From Baseline in Percent Predicted Forced Expiratory Volume in 1 Second (FEV1), Mean (Standard Deviation)” value (lung function; Cohort 3: 400 mg QD, Cycle 13, Day 1) was −3.5 (13.2) percent predicted FEV1. The “Change From Baseline in Percent Predicted Forced Expiratory Volume in 1 Second (FEV1), Mean (Standard Deviation)” value (lung function; Cohort 3: 400 mg QD, Cycle 14, Day 1) was −5.1 (9.1) percent predicted FEV1, the “Change From Baseline in Percent Predicted Forced Expiratory Volume in 1 Second (FEV1), Mean (Standard Deviation)” value (lung function; Cohort 3: 400 mg QD, Cycle 15, Day 1) was −6.1 (12.6) percent predicted FEV1 and the “Change From Baseline in Percent Predicted Forced Expiratory Volume in 1 Second (FEV1), Mean (Standard Deviation)” value (lung function; Cohort 3: 400 mg QD, Cycle 16, Day 1) was −4.5 (7.3) percent predicted FEV1. For the same compound, the “Change From Baseline in Percent Predicted Forced Expiratory Volume in 1 Second (FEV1), Mean (Standard Deviation)” value (lung function; Cohort 3: 400 mg QD, Cycle 17, Day 1) was −7.9 (15.5) percent predicted FEV1, the “Change From Baseline in Percent Predicted Forced Expiratory Volume in 1 Second (FEV1), Mean (Standard Deviation)” value (lung function; Cohort 3: 400 mg QD, Cycle 18, Day 1) was 4.0 (6.0) percent predicted FEV1 and the “Change From Baseline in Percent Predicted Forced Expiratory Volume in 1 Second (FEV1), Mean (Standard Deviation)” value (lung function; Cohort 3: 400 mg QD, Cycle 19, Day 1) was 0.5 (8.5) percent predicted FEV1. The “Change From Baseline in Percent Predicted Forced Expiratory Volume in 1 Second (FEV1), Mean (Standard Deviation)” value (lung function; Cohort 3: 400 mg QD, Cycle 25, Day 1) was −5.0 (11.4) percent predicted FEV1, the “Change From Baseline in Percent Predicted Forced Expiratory Volume in 1 Second (FEV1), Mean (Standard Deviation)” value (lung function; Cohort 3: 400 mg QD, Cycle 27, Day 1) was −10.0 (17.0) percent predicted FEV1 and the “Change From Baseline in Percent Predicted Forced Expiratory Volume in 1 Second (FEV1), Mean (Standard Deviation)” value (lung function; Cohort 3: 400 mg QD, Cycle 29, Day 1) was 0.0 (1.4) percent predicted FEV1. For the same compound, the “Change From Baseline in Percent Predicted Forced Expiratory Volume in 1 Second (FEV1), Mean (Standard Deviation)” value (lung function; Cohort 3: 400 mg QD, Cycle 31, Day 1) was −4.0 (—) percent predicted FEV1, the “Change From Baseline in Percent Predicted Forced Expiratory Volume in 1 Second (FEV1), Mean (Standard Deviation)” value (lung function; Cohort 3: 400 mg QD, Cycle 35, Day 1) was −4.0 (—) percent predicted FEV1 and the “Change From Baseline in Percent Predicted Forced Expiratory Volume in 1 Second (FEV1), Mean (Standard Deviation)” value (lung function; Cohort 3: 400 mg QD, Cycle 36, Day 1) was 5.0 (—) percent predicted FEV1. For the same compound, the “Change From Baseline in Percent Predicted Forced Expiratory Volume in 1 Second (FEV1), Mean (Standard Deviation)” value (lung function; Cohort 3: 400 mg QD, Cycle 39, Day 1) was −5.0 (—) percent predicted FEV1, the “Change From Baseline in Percent Predicted Forced Expiratory Volume in 1 Second (FEV1), Mean (Standard Deviation)” value (lung function; Cohort 3: 400 mg QD, Cycle 43, Day 1) was −7.0 (—) percent predicted FEV1 and the “Change From Baseline in Percent Predicted Forced Expiratory Volume in 1 Second (FEV1), Mean (Standard Deviation)” value (lung function; Cohort 3: 400 mg QD, Cycle 47, Day 1) was −5.0 (—) percent predicted FEV1. The “Change From Baseline in Percent Predicted Forced Expiratory Volume in 1 Second (FEV1), Mean (Standard Deviation)” value (lung function; Cohort 3: 400 mg QD, Cycle 49, Day 1) was −2.0 (—) percent predicted FEV1, the “Change From Baseline in Percent Predicted Forced Expiratory Volume in 1 Second (FEV1), Mean (Standard Deviation)” value (lung function; Cohort 3: 400 mg QD, EOT) was −7.4 (14.9) percent predicted FEV1 and the “Mean change in CS dose from baseline, Nonresponder” value (from here on “Mean change … Nonresponder”) (cGVHD; 200 mg daily) was −22%. The “Mean change in CS dose from baseline, Overall” value (shortened to “Mean change … Overall”) (cGVHD; 200 mg daily) was −43%, the “Mean change in CS dose from baseline, Responder” value (cGVHD; 200 mg daily) was −49% and the CS discontinuation (cGVHD; 200 mg daily (n = 66)) was 13 (20) n (%). The “Median CS reduction from baseline to greatest reduction” value (shortened to “Median CS reduction from baseline”) (cGVHD; 200 mg daily (n = 66)) was 38%, the “Proportion with CS reduction” value (cGVHD; 200 mg daily (n = 66)) was 42 (64) n (%) and the “Mean change … Nonresponder” value (cGVHD; 200 mg twice daily) was −10%. The “Mean change … Overall” value (cGVHD; 200 mg twice daily) was −48%, the “Mean change in CS dose from baseline, Responder” value (cGVHD; 200 mg twice daily) was −58% and the CS discontinuation (cGVHD; 200 mg twice daily (n = 66)) was 15 (23) n (%). The “Median CS reduction from baseline” value (cGVHD; 200 mg twice daily (n = 66)) was 50%, the “Proportion with CS reduction” value (cGVHD; 200 mg twice daily (n = 66)) was 44 (67) n (%) and the “subjects who discontinued calcineurin inhibitor (CNI) therapy” value (cGVHD; Example 2) was 22%. The “subjects who discontinued mycophenolate mofetil” value (cGVHD; Example 2) was 21%, the “subjects who discontinued sirolimus” value (cGVHD; Example 2) was 20% and the “subjects who reduced corticosteroid dose” value (cGVHD; Example 2) was 65%. For the same compound, the “mean corticosteroid dose reduction” value (cGVHD; Example 2, mITT) was 45%, the “mean corticosteroid dose reduction” value (cGVHD; Example 2, responders) was 54% and the “Mean change … Nonresponder” value (cGVHD; Total) was −16%. The “Mean change … Overall” value (cGVHD; Total) was −45%, the “Mean change in CS dose from baseline, Responder” value (cGVHD; Total) was −54% and the “Median CS reduction from baseline” value (cGVHD; Total (N = 132)) was 50%. The “Proportion with CS reduction” value (cGVHD; Total (N = 132)) was 86 (65) n (%) and the “inhibition of CYP2D6” value (CYP2D6) was “inhibitor”.
